Measurements published in ChEMBL document CHEMBL5620418.
Calls of active or inactive are those of the source. No cut-off for these calls is given here.

Test system: Mus musculus
Assay: Inhibition of morphine-induced intestinal propulsion function in mouse assessed as charcoal propulsion length at 10 mg/kg, ip by charcoal gavage and intestinal motility assays
Format: functional, organism-based

## COC(=O)/C=C/C(=O)N[C@@H]1CC[C@@]2(O)[C@H]3Cc4ccc(O)c5c4[C@@]2(CCN3CC2CC2)[C@H]1O5
  inhibition: Active
